The subject of series [1] is HCV subgenomic replicon in Huh-7 cells. As to the kind of experiment: Replicon Assay (Example B), luciferase readout EC50. It counts as cell-based. Put shortly:
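Huh-7 cells carrying a luciferase-neo HCV subgenomic replicon (NS3–NS5b) were treated with semilog compound dilutions (0.1% DMSO final), in triplicate, for 72 h at 37° C. EC50 came from Bright-Glo luciferase signal as a proxy for replicon RNA; viability was read by Alamar blue.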

Series [2] has as its system compound resistant HCV replicon variants in replicon bearing cells. The series is described as follows: Colony forming assay for compound resistant HCV replicon variants (Example C). Format: cell-based. As to conditions: up to 10x EC50, 1 mg/ml geneticin, 24 days, coomasie blue staining.
Procedure: The existence of compound resistant HCV replicon quasispecies was analysed using colony forming assays, where the emergence of compound resistant HCV replicon variants can allow production sufficient replicon encoded neomycin for cellular survival in medium containing 1 mg/ml geneticin (Life Technologies). 4,000 replicon bearing cells were plated/well on 12 well plates, and allowed to adhere overnight. […] The medium used also contained 1 mg/ml geneticin. Plates were then incubated at 37° C. in an atmosphere of 5% CO2 and air for 24 days the medium/compound solution with 1 mg/ml gentamicin was replaced twice every 7 days, before staining surviving colonies with coomasie blue.
The nature of series [3]: Replicon Assay (Example B), Alamar Blue cytotoxicity CC50. Format: cell-based. The following applies: human, lower value of the cell pair. Put shortly: (§1)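 Huh-7 cells carrying a luciferase/neo HCV subgenomic replicon (NS3–NS5b) were treated with semilog compound dilutions in triplicate (0.1% DMSO) for 72 h at 37 °C. Viability came from Alamar blue resazurin-to-resorufin fluorescence (535/590 nm) for CC50. EC50 came from Bright-Glo luciferase luminescence as a proxy for HCV RNA.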

For series [4], the target named is full length NS3/4a (Hepatitis C virus genotype 1b (isolate BK) (HCV), UniProt P26663). The series is described as follows: NS3 Protease Assay (Example A), FRET-based. It counts as biochemical. The essentials:
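Full-length NS3/4a, made in-house, with an NS4A/B-derived peptide substrate carrying QXL520 quencher and 5-FAMsp fluorophore. Buffer 50 mM Tris pH8, 20 mM DTT, 1% CHAPS, 10% glycerol, 5% DMSO. Fluorescence followed 30 min at room temperature; IC50 from initial rates of replicate curves.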

In series [5] the test system is Huh-7 cells persistently infected with the HCV subgenomic replicon. As to the kind of experiment: Replicon Assay (Example B), Alamar Blue cytotoxicity CC50. Format: cell-based. The following applies: lower value of the cell pair. The essentials:
as §1

The mark [6] stands for this setting: Hepatitis C virus, Huh-7, replicon assay, luciferase readout, upper value of the cell pair, read-out: Assay B EC50.
Where [7] appears, read: HCV NS3 protease assay, full length NS3/4a, read-out: Assay A IC50 (μM) average.
The mark [8] stands for this setting: read-out: IC50 against the protease activity of the full length NS3/4a.

Read-outs that look alike come from different tables or passages of the source.

Sequence of full length NS3/4a (P26663 1027-1657): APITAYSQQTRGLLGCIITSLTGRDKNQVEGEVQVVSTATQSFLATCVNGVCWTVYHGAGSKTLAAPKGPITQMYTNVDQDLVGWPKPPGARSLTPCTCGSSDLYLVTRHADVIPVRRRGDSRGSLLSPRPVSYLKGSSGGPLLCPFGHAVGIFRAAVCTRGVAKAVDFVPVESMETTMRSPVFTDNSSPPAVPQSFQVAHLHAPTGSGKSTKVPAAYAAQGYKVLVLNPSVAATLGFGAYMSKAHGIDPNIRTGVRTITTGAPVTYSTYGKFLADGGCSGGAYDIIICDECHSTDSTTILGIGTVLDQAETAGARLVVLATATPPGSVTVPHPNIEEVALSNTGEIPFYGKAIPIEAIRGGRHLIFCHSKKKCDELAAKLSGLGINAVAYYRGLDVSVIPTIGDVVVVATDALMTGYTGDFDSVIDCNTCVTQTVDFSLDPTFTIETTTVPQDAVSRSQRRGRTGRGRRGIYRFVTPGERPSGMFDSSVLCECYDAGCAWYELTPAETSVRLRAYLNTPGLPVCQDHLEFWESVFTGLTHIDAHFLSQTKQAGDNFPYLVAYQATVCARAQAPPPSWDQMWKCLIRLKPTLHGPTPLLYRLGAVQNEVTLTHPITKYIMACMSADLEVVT

As for `CC[C@@H](N[C@@H](C)CC(N)=O)c1ccc(Cl)c(C(=O)c2ccccc2)c1F` [Example 84, (3S)-3-{[(1R)-1-(3-benzoyl-4-chloro-2-fluorophenyl)-propyl]-amino}butanamide], the EC50 in series [1] (Hepatitis C virus, Huh-7, pre-determined EC50 used to set concentrations in combination studies, read-out: EC50 (replicon)) came to 6 nM; in series [1] (setting [6]) it was 6 nM. The “emergence of compound resistant colonies” value in series [2] is “prevented”. In series [3], this molecule had a CC50 at 72 h of more than 3000 nM. The IC50 in series [4] (setting [7]) was determined as 0.057 µM.

Turning to `[2H]C([2H])([2H])C([2H])([2H])[C@@H](N[C@@H](C)CC(N)=O)c1ccc(Cl)c(C(=O)c2ccc(N)c(Cl)c2)c1F` [Example 267, (3S)-3-{[(1R)-1-{3-[(4-amino-3-chlorophenyl)carbonyl]-4-chloro-2-fluorophenyl}(2,2,3,3,3-deutero)propyl]amino}-butanamide], the EC50 in series [1] (setting [6]) was found to be 5 nM. In series [3], this molecule yielded a CC50 at 72 h of more than 3000 nM. The IC50 is 0.085 µM in series [4] (setting [7]) and less than 1 µM in series [4] (setting [8]).

On to `CC[C@@H](NCCO)c1ccc(Cl)c(C(=O)c2ccccc2)c1F` [Example 176, 2-{[(1R)-1-(3-benzoyl-4-chloro-2-fluorophenyl)propyl]amino}ethan-1-ol], for which the EC50 in series [1] (setting [6]) was more than 3000 nM. Moreover, the CC50 at 72 h in series [3] was more than 3000 nM. Also, the IC50 in series [4] (setting [7]) came to 0.29 µM.

For `C[C@@H](CC(N)=O)N[C@@H](c1ccc(Cl)c(C(=O)c2ccc(N)c(Cl)c2)c1F)C1CC1` [Example 261, (3S)-3-{[(R)-{3-[(4-amino-3-chlorophenyl)carbonyl]-4-chloro-2-fluorophenyl}(cyclopropyl)methyl]amino}butanamide], the EC50 in series [1] (setting [6]) came out at 9.1 nM. This molecule registered a CC50 at 72 h in series [3] of more than 1000 nM. Also, the IC50 was 0.16 µM in series [4] (setting [7]) and less than 1 µM in series [4] (setting [8]).

For the molecule `C[C@@H](CC(N)=O)N[C@@H](c1ccc(Cl)c(C(=O)c2ccncc2)c1F)C1CC1` [Example 134, (3S)-3-{[(R)-{4-chloro-2-fluoro-3-[(pyridin-4-yl)carbonyl]phenyl}-(cyclopropyl)methyl]-amino}butanamide], in series [1] (setting [6]), the EC50 was found to be 52 nM. Besides, the CC50 at 72 h in series [3] was more than 3000 nM. In series [4] (setting [7]), the IC50 turned out to be 0.085 µM.

`CC[C@H](N[C@@H](C)CO)c1ccc(Cl)c(C(=O)c2ccc(N)nc2)c1F` [Example 177, (2S)-2-{[(1S)-1-{3-[(6-aminopyridin-3-yl)carbonyl]-4-chloro-2-fluorophenyl}propyl]amino}propan-1-ol]: the EC50 in series [1] (setting [6]) is more than 3000 nM. Moreover, the CC50 at 72 h in series [3] was more than 3000 nM. In addition, in series [4] (setting [7]), the IC50 is 0.18 µM.

Consider `CC[C@@H](N[C@@H](C)CC(N)=O)c1ccc(Cl)c(C(=O)c2ccc(O)cc2)c1F` [Example 230, (3S)-3-{[(1R)-1-{4-chloro-2-fluoro-3-[(4-hydroxyphenyl)carbonyl]phenyl}propyl]amino} butanamide], for which the EC50 in series [1] (setting [6]) amounted to 37 nM. The molecule further returned a CC50 at 72 h in series [3] of more than 3000 nM. The figures for the IC50 in series [4] (setting [7]) and in series [4] (setting [8]) were 0.55 µM and less than 1 µM, respectively.

In the case of `CC[C@@H](NC(C)(C)CC(N)=O)c1ccc(Cl)c(C(=O)c2cccnc2)c1F` [Example 113, 3-{[(1R)-1-{4-Chloro-2-fluoro-3-[(pyridin-3-yl)carbonyl]phenyl}propyl]amino}-3-methylbutanamide], the EC50 in series [1] (setting [6]) amounted to 180 nM. The same molecule gave a CC50 at 72 h in series [3] of more than 3000 nM. The IC50 in series [4] (setting [7]) worked out at 0.093 µM.

As to `CC[C@@H](N[C@@H](C)CC(N)=O)c1ccc(Cl)c(C(=O)c2ccc3c(n2)NC(=O)CO3)c1F` [Example 229, (3S)-3-{[(1R)-1-[4-chloro-2-fluoro-3-({3-oxo-2H,3H,4H-pyrido[3,2-b][1,4]oxazin-6-yl}carbonyl)phenyl]propyl]amino}butanamide], the EC50 in series [1] (setting [6]) is 1900 nM. The same molecule came in with a CC50 at 72 h in series [3] of more than 3000 nM. In addition, the IC50 in series [4] (setting [7]) was 1.1 µM; in series [4] (setting [8]) it was 1 to 5 µM.

As to `CC[C@@H](N[C@@H](C)CC(N)=O)c1ccc(Cl)c(C(=O)c2cccc(F)c2)c1F` [Example 95, (3S)-3-{[(1R)-1-{4-chloro-2-fluoro-3-[(3-fluorophenyl)-carbonyl]-phenyl}propyl]-amino}-butanamide], the EC50 in series [1] (setting [6]) stood at 41 nM. In series [3], this molecule registered a CC50 at 72 h of more than 3000 nM. Moreover, the IC50 in series [4] (setting [7]) worked out at 0.085 µM.

As to `CC[C@@H](N[C@@H](C)CC(N)=O)c1ccc(F)c(C(=O)c2ccccc2)c1F` [Example 157, (3S)-3-{[(1R)-1-(3-benzoyl-2,4-difluorophenyl)propyl]-amino}butanamide], the EC50 in series [1] (setting [6]) turned out to be 610 nM. In series [3], this molecule gave a CC50 at 72 h of more than 10000 nM. Also, in series [4] (setting [7]), the IC50 worked out at 0.045 µM.

Regarding `CC[C@@H](N[C@@H](C)CC(N)=O)c1ccc(Cl)c(C(=O)c2ccc(C#N)cc2)c1F` [Example 91, (3S)-3-{[(1R)-1-{4-chloro-3-[(4-cyanophenyl)carbonyl]-2-fluorophenyl}propyl]amino}-butanamide], in series [1] (setting [6]), the concentration for a half-maximal effect (EC50) is 1.2 nM. The molecule further registered a CC50 at 72 h in series [3] of more than 10000 nM. In addition, the IC50 in series [4] (setting [7]) is 0.066 µM.

Turning to `CC[C@H](NCCO)c1ccc(Cl)c(C(=O)c2ccccc2)c1F` [Example 171, 2-{[(1S)-1-(3-benzoyl-4-chloro-2-fluorophenyl)propyl]-amino}ethan-1-ol], in series [1] (setting [6]), the EC50 is more than 3000 nM. The same molecule registered a CC50 at 72 h in series [3] of more than 3000 nM. The IC50 in series [4] (setting [7]) was 0.056 µM; in series [4] (setting [8]) it was less than 1 µM.

`CCC(NC1CCCC1C(N)=O)c1ccc(Cl)c(C(=O)c2ccc(N)nc2)c1F` (racemic) [Example 126, 2-{[1-{3-[(6-aminopyridin-3-yl)carbonyl]-4-chloro-2-fluorophenyl}propyl]amino} cyclopentane-1-carboxamide]: the EC50 in series [1] (replicon assay, luciferase readout, upper value of the cell pair, read-out: Assay B EC50) was 91 nM. Further, the CC50 in series [5] is more than 3000 nM.

For the molecule `CC[C@@H](N[C@@H](C)CC(N)=O)c1ccc(OC)c(C(=O)c2ccc(N)c(C)c2)c1F` [Example 273, (3S)-3-{[(1R)-1-{3-[(4-amino-3-methylphenyl)carbonyl]-2-fluoro-4-methoxyphenyl}propyl]amino}butanamide], the EC50 in series [1] (setting [6]) came out at 27 nM. The molecule also showed a CC50 at 72 h in series [3] of more than 3000 nM. Moreover, the IC50 in series [4] (setting [7]) is 0.14 µM.

On to `CC[C@@H](N[C@@H](C)CC(N)=O)c1ccc(Cl)c(C(=O)c2ccc(N)c(C)c2)c1F` [Example 259, (3S)-3-{[(1R)-1-{3-[(4-amino-3-methylphenyl)carbonyl]-4-chloro-2-fluorophenyl}propyl]amino} butanamide], for which the EC50 in series [1] (setting [6]) was determined as 21 nM. In series [3], this molecule displayed a CC50 at 72 h of more than 1000 nM. Besides, the IC50 is 0.11 µM in series [4] (setting [7]) and less than 1 µM in series [4] (setting [8]).

Turning to `C[C@@H](CC(N)=O)N[C@@H](c1ccc(Cl)c(C(=O)c2ccc(F)cc2)c1F)C1CC1` [Example 121, (3S)-3-{[(R)-{4-chloro-2-fluoro-3-[(4-fluorophenyl)-carbonyl]phenyl}(cyclopropyl)methyl]amino}butanamide], the EC50 in series [1] (setting [6]) came out at 9.9 nM. The CC50 at 72 h in series [3] is more than 3000 nM. The molecule also showed an inhibition at 0.03 µM in series [4] (@ 0.03 uM) of 38%.

Turning to `CC[C@@H](N[C@@H](C)CC(N)=O)c1ccc(Cl)c(C(=O)c2ccc3c(c2)OCC(=O)N3)c1F` [Example 247, (3S)-3-{[(1R)-1-{4-chloro-2-fluoro-3-[(3-oxo-3,4-dihydro-2H-1,4-benzoxazin-7-yl)carbonyl]phenyl}propyl]amino}butanamide], in series [1] (setting [6]), the EC50 is 21 nM. In series [3], the CC50 at 72 h is more than 1000 nM. Besides, the IC50 in series [4] (setting [7]) is 0.29 µM; in series [4] (setting [8]) it was less than 1 µM.

Take `CC[C@@H](N[C@@H](C)CC(N)=O)c1ccc(Cl)c(C(=O)c2cccc(C#N)c2)c1F` [Example 101, (3S)-3-{[(1R)-1-{4-chloro-3-[(3-cyanophenyl)carbonyl]-2-fluorophenyl}propyl]amino}-butanamide]: in series [1] (setting [6]), the EC50 is 160 nM. In addition, the CC50 at 72 h in series [3] was more than 3000 nM. The IC50 in series [4] (setting [7]) was 0.11 µM; in series [4] (setting [8]), less than 1 µM.

The record behind these values is patent US9145354B2, “Pharmaceutical compounds” (priority 2011, dated 2015).
